The values that follow come from US10195196B2, “1,4-disubstituted pyridazine analogs there of and methods for treating SMN-deficiency-related conditions” (NOVARTIS AG, priority 2012, dated 2019).

This test has as its system SMN protein. The test can be described thus: cellular SMN ELISA (SMN protein elevation). The following applies: myoblast cell line from SMNdelta7 mouse model, 24 hours treatment; for SMN activity Fold: fold activation over DMSO control. It counts as cell-based. As for the experimental part:
A cellular SMN ELISA was used to measure the effects of low molecular weight compounds on SMN protein elevation. Cells from a myoblast cell line derived from the SMNdelta7 mouse model (kind gift from Steve Burden, NYU) were seeded into a 384-well plate at a density of 3000 cells/well and treated with compounds for 24 hours. ELISA capture plates were prepared by coating 384-well plates (Immulon 4HBX) with 0.5 ug/mL of anti-SMN mAb (BD Science, Catalog number 610647) at 4° C. overnight. The plates were washed 5 times with 110 uL of PBS-Tween (0.05% Tween-20, PBST), blocked with 100 uL of 1% BSA in PBST for 2 hours and washed (5 times) with 100 uL of PBST. After 24 hours of compound treatment cells were lysed in a modified RIPA-buffer, on ice for 1 hour. 20 uL of lysate and 20 uL of 1% BSA were then added to the ELISA capture plates and incubated at 4° C. overnight. Plates were washed (5 times) with PBST and then incubated with 1:100 dilution of primary rabbit anti-SMN polyclonal antibody (Santa cruz, Catalog number SC-15320) at room temperature for 1 hour and subsequently washed (5 times) with 110 uL of PBST. This was followed by addition of 1:100 Goat anti-Rabbit IgG-HRP linked (Cell Signaling, Catalog number 7074) secondary antibody for 1 hour. Plates were then washed with PBST and incubated with 40 uL TMB substrate (Cell Signaling, Catalog number 7004L) at room temperature for 1-10 minutes with shaking. The reaction was stopped by addition of 40 uL of stop solution (Cell signaling, Catalog number 7002L) and absorption was measured at 450 nm. Data was reported as fold activation over DMSO control, and EC50.
ELISA assay condition 1: compound concentration range 20 nM-10 uM; ELISA assay condition 2: compound concentration 100 pM-10 uM.
(ELISA stands for enzyme-linked immunosorbent assay.)

[1] abbreviates: ELISA condition 2: compound concentration 100 pM-10 uM.
[2] abbreviates: ELISA condition 1: compound concentration range 20 nM-10 uM.

The structures appear in SMILES notation.

Turning to `CC1CC(Oc2ccc(-c3ccc(-n4cccn4)cc3O)nn2)CC(C)N1` (single isomer, unassigned) [Example 17-3, 2-(6-((2,6-Dimethylpiperidin-4-yl)oxy)pyridazin-3-yl)-5-(1H-pyrazol-1-yl)phenol], under setting [1], the response was half-maximal at 183 nM (EC50) and the “SMN activity Fold” value turned out to be 2.75 Fold.

`CC1CC(Oc2ccc(-c3ccc(-n4cccn4)cc3O)nn2)CC(C)N1` (single isomer, unassigned) [Example 17-4, 2-(6-((2,6-Dimethylpiperidin-4-yl)oxy)pyridazin-3-yl)-5-(1H-pyrazol-1-yl)phenol]: under setting [1], the EC50 came to 92 nM and the “SMN activity Fold” value is on record as 3.25 Fold.

Take `CC1CC(Oc2ccc(-c3ccc(-n4cccn4)cc3O)nn2)CCN1` (single isomer, unassigned) [Example 17-6]: under setting [1], the EC50 was 443 nM and the “SMN activity Fold” value worked out at 2.58 Fold.

Consider `CC1CC(Oc2ccc(-c3ccc(-n4cccn4)cc3O)nn2)CCN1` (single isomer, unassigned) [Example 17-7], for which, under setting [1], the concentration for a half-maximal effect (EC50) stood at 617 nM and the “SMN activity Fold” value is 2.50 Fold.

With `Oc1cc(-n2cccn2)ccc1-c1ccc(OCC2CCNC2)nn1` (single isomer, unassigned) [Example 17-8, 5-(1H-pyrazol-1-yl)-2-(6-(pyrrolidin-3-ylmethoxy)pyridazin-3-yl)phenol], under setting [1], the EC50 is 3150 nM and the “SMN activity Fold” value was found to be 2.18 Fold.

Turning to `Oc1cc(-n2cccn2)ccc1-c1ccc(OCC2CCNC2)nn1` (single isomer, unassigned) [Example 17-9, 5-(1H-pyrazol-1-yl)-2-(6-(pyrrolidin-3-ylmethoxy)pyridazin-3-yl)phenol], under setting [1], the response was half-maximal at 1670 nM (EC50) and the “SMN activity Fold” value is listed as 2.63 Fold.

`CC1(C)CC(Nc2ccc(-c3ccccc3O)nn2)CC(C)(C)N1` [Example 1-3, 2-(6-(2,2,6,6-tetramethylpiperidin-4-ylamino)-pyridazin-3-yl)phenol]: under setting [1], the response was half-maximal at 726 nM (EC50) and the “SMN activity Fold” value was found to be 2.45 Fold.

On to `CN(c1ccc(-c2cc3cc(C#N)ccc3s2)nn1)C1CC(C)(C)NC(C)(C)C1` [Example 1-4, 2-(6-(methyl-(2,2,6,6-tetra-methylpiperidin-4-yl)amino)pyridazin-3-yl)benzo[b]-thio-phene-5-carbonitrile], for which, under setting [2], the half-maximal effective concentration (EC50) came to 90 nM and the “SMN activity Fold” value is on record as 2.05 Fold.

As to `CC1(C)CC(Nc2ccc(-c3cnc4ccccc4c3)nn2)CC(C)(C)N1` [Example 1-5, 6-(quinolin-3-yl)-N-(2,2,6,6-tetramethyl-piperidin-4-yl)pyridazin-3-amine], under setting [2], the EC50 was determined as 650 nM and the “SMN activity Fold” value worked out at 2.50 Fold.

As to `CC1(C)CC(Oc2ccc(-c3cc4ccccc4s3)nn2)CC(C)(C)N1` [Example 1-6, 3-(benzo[b]-thiophen-2-yl)-6-(2,2,6,6-tetra-methylpiperidin-4-yloxy)pyridazine], under setting [2], the EC50 is 2440 nM and the “SMN activity Fold” value came to 2.00 Fold.

`CN(c1ccc(-c2ccccc2O)nn1)C1CC(C)(C)NC(C)(C)C1` [Example 1-7, 2-(6-(methyl-(2,2,6,6-tetra-methylpiperidin-4-yl)amino)-pyridazin-3-yl)phenol]: under setting [2], the midpoint of the response, the EC50, lay at 1550 nM and the “SMN activity Fold” value is 2.07 Fold.

On to `CN(c1ccc(-c2ccc3cc(O)ccc3c2)nn1)C1CC(C)(C)NC(C)(C)C1` [Example 1-8, 6-(6-(methyl-(2,2,6,6-tetra-methylpiperidin-4-yl)amino)-pyridazin-3-yl)naphthalen-2-ol], for which, under setting [2], the EC50 amounted to 320 nM and the “SMN activity Fold” value was found to be 2.18 Fold.

Regarding `CC1(C)CC(Oc2ccc(-c3ccc4ccncc4c3)nn2)CC(C)(C)N1` [Example 1-10, 7-(6-((2,2,6,6-tetramethylpiperidin-4-yl)oxy)pyridazin-3-yl)isoquinoline], under setting [1], the EC50 is 1100 nM and the “SMN activity Fold” value is recorded as 2.75 Fold.

`CC1(C)CC(Oc2ccc(-c3ccc4cnccc4c3)nn2)CC(C)(C)N1` [Example 1-11, 6-(6-((2,2,6,6-tetramethylpiperidin-4-yl)oxy)pyridazin-3-yl)isoquinoline]: under setting [1], the midpoint of the response, the EC50, lay at 3900 nM and the “SMN activity Fold” value was found to be 2.67 Fold.

As for `CN(c1ccc(-c2ccc3cccnc3c2)nn1)C1CC(C)(C)NC(C)(C)C1` [Example 1-12, N-methyl-6-(quinolin-7-yl)-N-(2,2,6,6-tetramethyl-piperidin-4-yl)pyridazin-3-amine], under setting [1], the EC50 was 367 nM and the “SMN activity Fold” value worked out at 2.54 Fold.

Take `CN(c1ccc(-c2ccc3ncccc3c2)nn1)C1CC(C)(C)NC(C)(C)C1` [Example 1-13, N-methyl-6-(quinolin-6-yl)-N-(2,2,6,6-tetramethylpiperidin-4-yl)pyridazin-3-amine]: under setting [1], the midpoint of the response, the EC50, lay at 661 nM and the “SMN activity Fold” value is given as 2.22 Fold.

Regarding `CN(c1ccc(-c2ccc3ccncc3c2)nn1)C1CC(C)(C)NC(C)(C)C1` [Example 1-14, 6-(isoquinolin-7-yl)-N-methyl-N-(2,2,6,6-tetramethylpiperidin-4-yl)pyridazin-3-amine], under setting [1], a half-maximal effect (EC50) was put at 252 nM and the “SMN activity Fold” value is 3.13 Fold.

As to `CN(c1ccc(-c2ccc3cnccc3c2)nn1)C1CC(C)(C)NC(C)(C)C1` [Example 1-15, 6-(isoquinolin-6-yl)-N-methyl-N-(2,2,6,6-tetramethylpiperidin-4-yl)pyridazin-3-amine], under setting [1], the EC50 worked out at 197 nM and the “SMN activity Fold” value came to 2.93 Fold.

`CN(c1ccc(-c2ccc3nccn3c2)nn1)C1CC(C)(C)NC(C)(C)C1` [Example 1-16, 6-(imidazo[1,2-a]pyridin-6-yl-pyridazin-3-yl)-methyl-(2,2,6,6-tetramethyl-piperidin-4-yl)-amine]: under setting [1], the midpoint of the response, the EC50, lay at 2980 nM and the “SMN activity Fold” value was 2.28 Fold.

Take `CN(c1ccc(-c2ccc(-c3ccccc3)nc2)nn1)C1CC(C)(C)NC(C)(C)C1` [Example 1-17, methyl-[6-(6-phenyl-pyridin-3-yl)-pyridazin-3-yl]-(2,2,6,6-tetramethyl-piperidin-4-yl)-amine]: under setting [1], the EC50 is 926 nM and the “SMN activity Fold” value was 2.37 Fold.

Turning to `CN(c1ccc(-c2ccc(-n3cccc3)nc2)nn1)C1CC(C)(C)NC(C)(C)C1` [Example 1-18, methyl-[6-(6-pyrrol-1-yl-pyridin-3-yl)-pyridazin-3-yl]-(2,2,6,6-tetramethyl-piperidin-4-yl)-amine], under setting [2], the midpoint of the response, the EC50, lay at 1130 nM and the “SMN activity Fold” value is 2.69 Fold.

On to `CN(c1ccc(-c2ccc(-n3cccn3)nc2)nn1)C1CC(C)(C)NC(C)(C)C1` [Example 1-19, methyl-[6-(6-pyrazol-1-yl-pyridin-3-yl)-pyridazin-3-yl]-(2,2,6,6-tetramethyl-piperidin-4-yl)-amine], for which, under setting [2], the EC50 worked out at 740 nM and the “SMN activity Fold” value came to 3.10 Fold.

For `CN(c1ccc(-c2cnc3ccccc3n2)nn1)C1CC(C)(C)NC(C)(C)C1` [Example 1-20, methyl-(6-quinoxalin-2-yl-pyridazin-3-yl)-(2,2,6,6-tetramethyl-piperidin-4-yl)-amine], under setting [2], the midpoint of the response, the EC50, lay at 470 nM and the “SMN activity Fold” value is recorded as 3.04 Fold.

With `CN(c1ccc(-c2cnc3ccccc3c2)nn1)C1CC(C)(C)NC(C)(C)C1` [Example 1-21, methyl-(6-quinolin-3-yl-pyridazin-3-yl)-(2,2,6,6-tetramethyl-piperidin-4-yl)-amine], under setting [2], the EC50 came to 630 nM and the “SMN activity Fold” value stood at 2.49 Fold.

Regarding `CN(c1ccc(-c2ccc3cnncc3c2)nn1)C1CC(C)(C)NC(C)(C)C1` [Example 1-22, N-methyl-6-(phthalazin-6-yl)-N-(2,2,6,6-tetramethylpiperidin-4-yl)pyridazin-3-amine], under setting [1], the EC50 was found to be 867 nM and the “SMN activity Fold” value amounted to 2.71 Fold.

In the case of `CC1(C)CC(Nc2ccc(-c3ccc4nonc4c3)nn2)CC(C)(C)N1` [Example 2-1, 6-(benzo[c][1,2,5]oxa-diazol-5-yl)-N-(2,2,6,6-tetramethyl-piperidin-4-yl)pyridazin-3-amine], under setting [2], the EC50 was found to be 1370 nM and the “SMN activity Fold” value is listed as 2.68 Fold.

For the compound `CC1(C)CC(Nc2ccc(-c3ccc4scnc4c3)nn2)CC(C)(C)N1` [Example 2-2, 6-(benzo[d]thiazol-5-yl)-N-(2,2,6,6-tetramethyl-piperidin-4-yl)pyridazin-3-amine], under setting [2], the EC50 was 1030 nM and the “SMN activity Fold” value turned out to be 2.37 Fold.

Take `Cc1nc2ccc(-c3ccc(NC4CC(C)(C)NC(C)(C)C4)nn3)cc2o1` [Example 2-3, 6-(2-methylbenzo-[d]oxazol-6-yl)-N-(2,2,6,6-tetramethyl-piperidin-4-yl)pyridazin-3-amine]: under setting [2], the concentration giving a half-maximal response (EC50) was determined as 1200 nM and the “SMN activity Fold” value came out at 2.46 Fold.

A word on the EC50: it is the midpoint of the concentration-response curve. A lower EC50 goes with higher potency in that assay.
